For this assay, the target named is T1, Renilla luciferase 8 (RLuc8) (Renilla reniformis, UniProt P27652, A55T/C124A/S130A/K136R/A143M/M185V/M253L/S287L).
T1 construct: RLuc8 in pcDNA3.1(+), stably expressed in MDA-MB231 cells
T1 sequence (P27652 1-311 A55T/C124A/S130A/K136R/A143M/M185V/M253L/S287L): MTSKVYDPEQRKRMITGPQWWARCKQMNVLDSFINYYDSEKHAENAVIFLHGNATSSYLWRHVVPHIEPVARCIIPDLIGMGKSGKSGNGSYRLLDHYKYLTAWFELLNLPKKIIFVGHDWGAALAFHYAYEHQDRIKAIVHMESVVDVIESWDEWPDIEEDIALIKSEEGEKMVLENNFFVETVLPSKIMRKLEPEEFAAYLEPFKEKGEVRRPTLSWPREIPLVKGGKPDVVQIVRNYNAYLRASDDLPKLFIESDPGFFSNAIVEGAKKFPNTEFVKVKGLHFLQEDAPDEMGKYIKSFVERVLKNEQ
The assay can be described thus: bioluminescence imaging of MDA-MB231 cells expressing the luciferase. Type of assay: cell-based. The note with it: stable cells.

Take `Oc1ccc(Cc2nc3c(Cc4ccccc4)nc(-c4ccc(O)cc4)cn3c2O)cc1` [nCTZ]: the “bioluminescence imaging of MDA-MB231 cells expressing the luciferase” value is given as “exhibited the brightest signal when reacted with nCTZ”.

The values are drawn from paper PMC10098686, “Bright Molecular Strain Probe Templates for Reporting Protein–Protein Interactions” (Sensors (Basel, Switzerland), 2023).
